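Five compound concentrations were applied to cells in 96-well plates for 48 hours; endpoints were derived by simple linear interpolation of the resulting dose-response curve. The concentration for full growth arrest is given as TGI.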
Assays:
Assay in all cases: growth of human tumour cells (NCI), 48 h
[1] = tested on: SN12C renal
[2] = tested on: OVCAR-4 ovarian
[3] = tested on: EKVX NSCLC
[4] = tested on: HL-60(TB) leukemia
[5] = tested on: HCT-116 colon
[6] = tested on: MOLT-4 leukemia
[7] = tested on: SNB-19 CNS
[8] = tested on: SK-MEL-5 melanoma
[9] = tested on: SR leukemia
[10] = tested on: UACC-62 melanoma
[11] = tested on: HOP-62 NSCLC
[12] = tested on: SF-268 CNS
[13] = tested on: DU-145 prostate
[14] = tested on: TK-10 renal
[15] = tested on: OVCAR-5 ovarian
[16] = tested on: M14 melanoma
[17] = tested on: UO-31 renal
[18] = tested on: NCI-H226 lung
[19] = tested on: MDA-MB-231 breast
[20] = tested on: HOP-92 NSCLC
[21] = tested on: KM12 colon
[22] = tested on: T-47D breast
[23] = tested on: CCRF-CEM leukemia
[24] = tested on: SF-295 CNS
[25] = tested on: MDA-N
[26] = tested on: OVCAR-3 ovarian
[27] = tested on: NCI/ADR-RES ovarian
[28] = tested on: A549 NSCLC
[29] = tested on: SF-539 CNS
[30] = tested on: SW-620 colon
[31] = tested on: NCI-H522 lung
[32] = tested on: RXF 393 renal
[33] = tested on: SK-OV-3 ovarian
[34] = tested on: NCI-H460 lung
[35] = tested on: MCF7 breast
[36] = tested on: PC-3 prostate
[37] = tested on: U251 CNS
[38] = tested on: SNB-75 CNS
[39] = tested on: HCC-2998 colon
[40] = tested on: MDA-MB-435
[41] = tested on: HCT-15 colon
[42] = tested on: ACHN renal
[43] = tested on: OVCAR-8 ovarian
[44] = tested on: IGROV1 ovarian
[45] = tested on: 786-0 renal
[46] = tested on: A498 renal
[47] = tested on: K-562 leukemia
[48] = tested on: UACC-257 melanoma
[49] = tested on: HT29 colon
[50] = tested on: SK-MEL-2 melanoma
[51] = tested on: MALME-3M melanoma
[52] = tested on: NCI-H23 lung
[53] = tested on: SK-MEL-28 melanoma
[54] = tested on: COLO 205 colon
[55] = tested on: LOX IMVI melanoma
[56] = tested on: CAKI-1 renal
[57] = tested on: HS 578T breast

## COC(=O)[C@@H](NC1(c2ccccc2)c2ccccc2-c2ccccc21)[C@H](OC(=O)[C@H]1CCCN1S(=O)(=O)c1ccccc1)C(=O)OC
[1]
  TGI: > 100 µM
[2]
  TGI: > 100 µM
[3]
  TGI: > 100 µM
[4]
  TGI: > 100 µM
[5]
  TGI: > 100 µM
[6]
  TGI: > 100 µM
[7]
  TGI: > 100 µM
[8]
  TGI: > 100 µM
[9]
  TGI: > 100 µM
[10]
  TGI: > 100 µM
[11]
  TGI: > 100 µM
[12]
  TGI: > 100 µM
[13]
  TGI: > 100 µM
[14]
  TGI: > 100 µM
[15]
  TGI: > 100 µM
[16]
  TGI: > 100 µM
[17]
  TGI: > 100 µM
[18]
  TGI: > 100 µM
[19]
  TGI: > 100 µM
[20]
  TGI: 84.1 µM
[21]
  TGI: > 100 µM
[22]
  TGI: > 100 µM
[23]
  TGI: > 100 µM
[24]
  TGI: > 100 µM
[25]
  TGI: > 100 µM
[26]
  TGI: > 100 µM
[27]
  TGI: > 100 µM
[28]
  TGI: > 100 µM
[29]
  TGI: > 100 µM
[30]
  TGI: > 100 µM
[31]
  TGI: > 100 µM
[32]
  TGI: > 100 µM
[33]
  TGI: > 100 µM
[34]
  TGI: > 100 µM
[35]
  TGI: > 100 µM
[36]
  TGI: > 100 µM
[37]
  TGI: > 100 µM
[38]
  TGI: > 100 µM
[39]
  TGI: > 100 µM
[40]
  TGI: > 100 µM
[41]
  TGI: > 100 µM
[42]
  TGI: > 100 µM
[43]
  TGI: > 100 µM
[44]
  TGI: > 100 µM
[45]
  TGI: > 100 µM
[46]
  TGI: > 100 µM
[47]
  TGI: > 100 µM
[48]
  TGI: > 100 µM
[49]
  TGI: > 100 µM
[50]
  TGI: > 100 µM
[51]
  TGI: > 100 µM
[52]
  TGI: > 100 µM
[53]
  TGI: > 100 µM
[54]
  TGI: > 100 µM
[55]
  TGI: > 100 µM

## CN1CCN(Cn2nc(COc3ccc(Cl)cc3)n(/N=C/c3ccc(-c4ccc(Cl)cc4Cl)o3)c2=S)CC1
[2]
  TGI: 10.5 µM
[3]
  TGI: 37.7 µM
[5]
  TGI: 26.2 µM
[6]
  TGI: 41.1 µM
[8]
  TGI: 35.5 µM
[9]
  TGI: 14.8 µM
[11]
  TGI: 16.8 µM
[12]
  TGI: 21.3 µM
[13]
  TGI: 25 µM
[14]
  TGI: 30.6 µM
[15]
  TGI: 33.2 µM
[17]
  TGI: 32.6 µM
[18]
  TGI: 49.2 µM
[19]
  TGI: 22 µM
[20]
  TGI: 22.7 µM
[21]
  TGI: 11 µM
[22]
  TGI: 46.3 µM
[23]
  TGI: 17.3 µM
[24]
  TGI: 27.8 µM
[25]
  TGI: 14.1 µM
[26]
  TGI: 30.6 µM
[27]
  TGI: 38.9 µM
[29]
  TGI: 72.3 µM
[30]
  TGI: 19 µM
[31]
  TGI: 10.2 µM
[32]
  TGI: 7.13 µM
[33]
  TGI: 30.2 µM
[34]
  TGI: 34.3 µM
[35]
  TGI: 36.7 µM
[36]
  TGI: 23.5 µM
[37]
  TGI: 23.1 µM
[39]
  TGI: 7.72 µM
[40]
  TGI: 8.02 µM
[41]
  TGI: 36.9 µM
[42]
  TGI: 33.9 µM
[56]
  TGI: 28.3 µM
[43]
  TGI: 18.7 µM
[57]
  TGI: 23.8 µM
[44]
  TGI: 24 µM
[45]
  TGI: 17 µM
[46]
  TGI: 32.6 µM
[47]
  TGI: > 100 µM
[48]
  TGI: 36.7 µM
[49]
  TGI: 15.4 µM
[50]
  TGI: 41 µM
[53]
  TGI: 28.2 µM
[55]
  TGI: 24.1 µM
